Test results from patent publication US6194465A, “Benzamide therapeutics for the treatment of inflammatory bowel disease” (priority 1999, dated 2001).
“Also recorded” adds a separate entry of the source.

Assays:
[1] = test system: TNBS-induced colitis; test: TNBS model of IBD, Compound A given before TNBS (morphology, tissue weight); format: in vivo, Male Sprague-Dawley rats
Excerpt: The trinitrobenzene sulphonic acid ("TNBS") model is one of the standard IBD models used in IBD discovery research, and has been extensively evaluated in rodents. A single enema of TNBS induces a prolonged colonic inflammatory response (up to several weeks) that is transmural and is accompanied by oxidative damage as evidenced by an increase in myeloperoxidase ("MPO") activity. Furthermore, the inflammation is characterized by discrete areas of acute necrosis, inflammation and muscle thickening. Agents with anti-inflammatory effects in patients with IBD show efficacy in this model. Although the mechanism by which TNBS induces an inflammatory response is unknown, it is thought to have an immunological basis.
Male Sprague-Dawley rats (200-250 g) were housed in standard cages (2 per cage) and fed rat chow and tap water ad libitum. After an overnight fast, rats were brought into the laboratory and randomized into treatment groups. Colitis was induced by intrarectal administration of 0.5 ml of TNBS solution (50 mg/kg in 50% ethanol) using a 1 ml syringe attached to a 5 cm polyethylene catheter. Control animals received saline (0.9%) or a 1 % methyl cellulose suspension at identical time points.
Three days after TNBS administration, the rats were sacrificed and the colons excised and opened longitudinally.
The weights of each 5 cm colonic segment were also recorded to assess inflammatory induced edema.
For PO (oral) dosing, Compound A was administered by oral gavage 30 mg/kg as a 1% carboxy methyl cellulose ("CMC") suspension 1 hour prior to the administration of TNBS. Control rats were given CMC only. For IV (intravenous) dosing, Compound A was administered 30 mg/kg by tail vein injection in a 75% PEG/25 % water solution 1 hour prior to administration of TNBS. Control rats were given an injection of 75% PEG/25 % water only. Six rats were dosed for each route of administration.
An additional study was conducted varying the amount of Compound A administered to the rats. Doses of 10 mg/kg, 30mg/kg, and 70 mg/kg were given by oral administration.
A study was run to determine whether or not the effectiveness of Compound A was dependent upon when it was administered relative to the TNBS administration.
Groups of rats (N=11/group) were administered increasing doses of Compound A (0-90 mg/kg-po) 1 hour prior to TNBS enema. In addition to macroscopic assessment, the wet weight of the tissue was also measured as an additional secondary efficacy parameter.

[2] = test system: DSS-induced colitis; test: Mouse Dextran Sulfate (DSS) IBD model; format: in vivo, Swiss-Webster mice
Experimental: Another model used for screening candidate IBD-treating compounds is the Dextran Sulfate ("DSS") model. Similar to the TNBS model, DSS induced colitis is widely used as a screening tool for IBD therapeutics. When administered orally, DSS induces IBD-like symptoms in Swiss-Webster mice. This model is used to determine the effectiveness of compounds of this invention when such compounds are administered orally (p.o.)
Individually housed 30-40 g male Swiss-Webster mice (B & K Universal, Fremont, Calif.) received 3% DSS (Sigma Chemicals, St. Louis, Mo.) in their drinking water for 7 days. All animals received food and water ad libitum.
Two groups of mice were dosed orally with either Compound A in a dosing vehicle (1% methyl cellulose, dose range of 10 mg/kg to 30 mg/kg) or dosing vehicle alone (control).
Clinical signs of colitis were assessed by a disease activity index ("DAI") consisting of changes in stool characteristics, fecal occult bleeding and body weight loss. The DAI is very similar to the Crohn's Disease Activity Index used in clinical trials to evaluate new agents to prevent/treat IBD. The DAI data were analyzed using Proc Anova in SAS with a Bonferoni post-hoc analysis, and Model 108 in WinNonlin™ (Professional Version 1.5, Scientific Consulting, Apex, NC) for the ED50 and Emax values. The wet weight and myeloperoxidase ("MPO") data (collected only on Day 7) were analyzed by Proc TTest in SAS. MPO is a marker for neutrophil infiltration.
Stool Characteristic: 0=normal, 2=loose and 4=diarrhea
Fecal Occult Blood: 0=negative, 2=positive, 4=gross bleeding
Two strips of colonic tissue/mouse
MPO activity by spectrophotometric assay

[3] = test system: DSS-induced colitis; test: Dose-response in the Mouse Dextran Sulfate (DSS) model; format: in vivo
Experimental: To determine the dose-response relationship of Compound A in the DSS Mouse Model, the following procedure was used.
Experimental conditions and statistical analyses were the same as the Mouse Dextran Sulfate IBD Model, except four groups of mice (n=8-10/group) were used. Animals were dosed orally with either Compound A (3, 10 or 30 mg/kg) or vehicle alone. In addition, the following procedure was introduced to evaluate the histology in the animals:
5-6 slices/segment with 15-18 total pieces/colon
Score for extent of damage: 0=1-25% involvement, 1=26-50% involvement,
0=intact crypt, 1=loss of 1/3 crypt, 2=loss of 2/3 crypt, 3=loss of entire crypt with surface epithelium intact, 4=loss of entire crypt and erosion of surface epithelium
0=normal, 1=focal inflammatory cell infiltrate including PMNs, 2=inflammatory cell infiltration, gland dropout and crypt abscess, 3=mucosal ulceration
Single, evaluator (qualified pathologist) blinded to the treatment conditions.

[4] = 0-90 mg/kg po, 1 hour prior to TNBS

## CC(=O)Nc1ccc(C(=O)NC(C)(C)C)cc1 [Compound A, N-tert-butyl-4-acetamidobenzamide]
[1]; [4]
  colonic morphological score (in words): dose-dependent reduction
  wet weight of colonic segments (in words): dose-dependent reduction
[1]; 10 mg/kg oral
  protective effects, 10 mg/kg: minimal protective effects
[1]; 30 mg/kg IV, 1 hour before TNBS
  severity of IBD symptoms / protection from TNBS damage, IV: decreases the severity of IBD symptoms; also recorded: protected from the damage induced by TNBS; also recorded: greater protection seen following IV administration; also recorded: intravenous administration of Compound A also provides protection
[1]; 30 mg/kg oral
  protective effects, 30 mg/kg: increased protective effects
[1]; 30 mg/kg po, 1 hour before TNBS
  severity of IBD symptoms / protection from TNBS damage, PO: decrease the severity of IBD symptoms; also recorded: protected from the damage induced by TNBS
[1]; 30 mg/kg po, 120 mins pretreatment
  protection, administered 120 mins before TNBS: less protective compared to the 60 min pretreatment period
[1]; 70 mg/kg oral
  protective effects, 70 mg/kg: strongest protective effect
[1]; 1 hour (60 min) pretreatment
  protection, administered 1 hour before TNBS: best protection
[1]; IV and PO, 30 mg/kg
  tissue weight (in words): suggest protection, but not as convincingly as the morphology and MPO activity results
[1]; IV or PO
  activity in protecting colon tissue, summary (in words): good activity in protecting colon tissue from damage
[1]; single dose, 240 mins pretreatment
  protection, administered 240 mins before TNBS: little protection against morphological changes
[2]; Day 7
  MPO values (in words): the protection was not statistically significant
  wet weight (in words): the protection was not statistically significant
[2]; oral, 10 mg/kg to 30 mg/kg
  protective effect against DSS-induced colitis: showed protective effect against DSS-induced colitis
  significance of protective effect by day: statistically significant on days 3, 4, 5 and 7
[2]; oral, DSS model, WinNonlin
  estimated ED50: approximately 15 mg/kg
  estimated Emax: ~80 % protection
[3]; oral
  protective effect, significance by day: statistically significant on days 3, 4, 5 and 7
[3]; oral, 3, 10 or 30 mg/kg
  DAI score, protective effect (in words): marked dose-dependent protective effect
  DAI score, significance by dose: statistically significant at 30 mg/kg
  MPO values (in words), dose-response study: the protection was not statistically significant
  wet weight (in words), dose-response study: the protection was not statistically significant
